# Tested on: CFUs
# Experiment: Reduction in CFUs with additive-containing supercritical carbon dioxide sterilant fluid
# Type: cell-based
# Details: additive in supercritical carbon dioxide under sterilization temperature and pressure conditions
# Excerpt: It has been observed that 6-log reductions in CFUs may be achieved in accordance with the present invention by subjecting materials to be sterilized under sterilization temperature and pressure conditions using an additive-containing supercritical carbon dioxide as a sterilant fluid, wherein the additive is carbonic anhydrase. Further, this process is enhanced where the sterilant fluid is agitated during the sterilization process.
substance,measurement,value
carbonic anhydrase,reductions in CFUs,6 log

# From patent US7771652B2, “Combined use of an alkaline earth metal compound and a sterilizing agent to maintain osteoinduction properties of a demineralized bone matrix” (Novasterilis, Inc., priority 2008, dated 2010)
